In EP0427747B1, “SUBSTITUTED PHENYLACETONITRILES USED TO OVERCOME RESISTANCE TO DRUGS IN ANTI-MALARIAL THERAPY” (priority 1988, dated 1990):
Where a name gives a salt, the structure may show the parent alone.

How the values were obtained:
in vivo [1] = conditions: rat, iv
Description: Das 3. Modell untersucht ebenfalls am Ganztier die Wirkung der Testsubstanz auf das Herz.
(§1) Angegeben ist jeweils, wieviel größer die Dosis der Testsubstanz sein darf als bei racemischem Verapamil, um den gleichen caridovasculären Effekt auszulösen.
(§2) Der Selektivitätsindex S der Tabelle ist das Produkt dieses Faktors mit dem AEI und beschreibt somit, um wieviel schwächer als beim racemischen Verapamil die cardiovasculären Effekte der Testsubstanz sind, wenn sie in der Resistenzbrechnung von Malariamitteln in equieffizienten Dosen eingesetzt werden.

P. yoelii NS = experiment: Test model II: blood schizontocidal action in infected mice, 4-day treatment; format: in vivo, Plasmodium yoelii ssp; conditions: for % Parasitämie: mice, daily dose 10,0 mg/kg test substance plus 0,3 mg/kg Chloroquin, s.c., 4 days, parasitaemia one day after treatment
Description: Zur Bestätigung und weiteren Differenzierung der resistenzbrechenden Wirkung wurden Mäuse nach dem in Ann. Trop. Med. Parasit., 72, 23 (1978) beschriebenen Modell (vgl. auch Exp. Parasitol. 17, 89 (1965), Anm. Trop. Med. Parasit. 69, 155 (1975) mit parasitär befallenden Erythrocyten beimpft und 1 Tag nach der Injektion an vier aufeinanderfolgenden Tagen behandelt. Einen Tag nach der Behandlung wurde die Parasitämie bestimmt.
Eperythozoon-coccoides-freie, männliche, Schweizer Albino-Mäuse, Gewicht zwischen 18 und 20 g, werden für alle Prüfungen benutzt.
Sie werden in Räumen mit kontrollierter Temperatur (22° + 2°C) in Kunststoffkäfigen zu je 5 Mäusen pro Käfig gehalten.
P. yoelii NS, gewonnen aus P. yoelii N: mäßig resistent gegenüber Chloroquin. Erhaltung durch zyklische Passage durch Anopheles stephensi und unter medikamentöser Belastung in der Maus (60 mg/kg s.c. einmal während der Passage) (für nähere Erläuterung siehe Ann. Trop. Med. Parasit., 72, 23 (1978)).
Männliche Mäuse werden intravenös mit parasität befallenden Erythrozyten (10⁷) vom P. yoelli NS Stamm beimpft. Danach werden die Tiere an vier aufeinanderfolgenden Tagen beginnend am Tag der Infektion einmal täglich behandelt. Die Verbindungen werden mit ®Tween 80 in sterilem, destilliertem Wasser gelöst oder suspendiert und subkutan verabreicht. In Fällen, in denen sich die Zubereitung einer wäßrigen Lösung als äußerst schwierig erweist, wird die Prüfsubstanz zunächst in Dimethylsulfoxid gelöst. Danach werden wäßrige Verdünnungen zum Gebrauch hergestellt. Die Parasitämie wird am Tag nach der letzten Behandlung bestimmt. Die unterdrückung der Parasiten im Vergleich zur unbehandelten Kontrolle, wird mittels Probitanalyse der log-Dosis-Wirkungskurve berechnet.
Mäuse, die mit dem chloroquin-resistenten Plasmodium yoelii ssp infiziert waren, wurden mit Chloroquin über 4 Tage subkutan behandelt, wie unter II.2 beschrieben.
Einen Tag nach der Behandlung wurde die Parasitämie bestimmt und mit der Kontrolle verglichen.
Der AEI (Activity Enhancement Index) ist der Quotient aus der ED₉₀ für Chloroquin alleine und der ED₉₀ für Zusatz von 10 mg/kg Testsubstanz.

in vivo [2] = conditions: rat, iv; remark: listed apart in the source
Description: (§3) Weiter umfaßt die Tabelle drei praxisübliche Testmodelle auf cardiovasculäre Effekte. Am Gefäßstreifen der Ratte (rat aortic strip) (1. Modell) wird die Dosis bestimmt, die zu einer 50 %igen Relaxation führt, sie ist ein Maß für die gefäßerweiternde und damit blutdrucksenkende Wirkung einer Substanz. Das 2. Modell untersucht die blutdrucksenkende Wirkung am Ganztier (Ratte), bei intravenöser Gabe).
as §1, §2

[3] = tested on: Gefäßstreifen der Ratte (rat aortic strip); experiment: in vitro
Description: as §3, §1, §2

in vitro = conditions: rat, aortic strip
Description: as §3, §1, §2

[4] = tested on: humanen Erythrocyten, die mit resistenten Plasmodien (Pl. falciparum) infiziert waren; experiment: Test model I: radiolabelled hypoxanthine incorporation (microdilution technique), alone and in combination with the antimalarial; format: cell-based; conditions: combination with Chloroquine; 1,0 = additivity, <0,5 = synergism
Description: Alle Substanzen wurden zunächst alleine und dann in Kombination mit dem Antimalaria-Mittel an humanen Erythrocyten, die mit resistenten Plasmodien (Pl. falciparum) infiziert waren, getestet. Der Einbau von radioaktiv markiertem Hypoxanthin diente als Maß für das Wachstum der Parasiten. Nach der Microdilutions-Technik (Antimicrob. Agents Chemotherapy 16,710 (1979)), wurde dabei für die erfindungsgemäßen Substanzen allein keine oder nur eine geringe Hemmung des Hypoxanthin-Einbaus gefunden. In Kombination mit einem Malariamittel wurde dagegen eine deutlich synergistische Hemmung beobachtet. Die Auswertung erfolgte über den FIC-Index (eine mathematische Repräsentation eines Isobologramms). Der Wert 1,0 bedeutet Additivität der Wirkungen, ein Wert <0,5 Synergismus. Für R-Verapamil und Chloroquin erhält man den Wert 0,56. [formula] IC₅₀ = Konzentration der Prüfsubstanz, die eine 50 %ige Hemmung der Parasiten bewirkt. [A] = gemessene IC₅₀ der Substanzu A in Gegenwart einer definierten (z.B. 500 bis 125 000 ng/ml) Menge der Substanz B. [B] = gemessene IC₅₀ der Substanz B in Gegenwart einer definierten (z.B. 500 bis 125 000 ng/ml) Menge der Substanz A. IC50A = IC₅₀ der Substanz A alleine gegeben IC50B = IC₅₀ der Substanz B alleine gegeben.
Die folgenden Werte wurden in der Kombination mit Chloroquine bestimmt.

[5] = AEI relative to S,R-Verapamil = 1
[6] = Activity Enhancement Index: ED90 of Chloroquin alone divided by ED90 with addition of 10 mg/kg test substance

SMILES | EKG (AV-Block) Ratte i.v. ED (in vivo [1]) | AEI (10 mg/kg) (P. yoelii NS; [5]) | AEI (10 mg/kg) (P. yoelii NS; [6]) | Blutdrucksenkung ED₅₀ (in vivo [2]) | selectivity ratio (in vivo [2]) | Ratten Aortenstreifen ED₅₀ [3] | selectivity ratio (in vitro) | FIC-Index [4] | selectivity ratio (in vivo [1]) | % Parasitämie (P. yoelii NS)
COc1ccc(CCN(C)CCCC(C#N)(c2ccc(OC)c(OC)c2)C(C)C)cc1OC (racemic) [S,R-Verapamil, Verapamil, reference compound] | = 1 | = 1 x | 2,56 |  |  |  |  |  |  | 
CC(C)C(C#N)(CCCNCCc1ccccc1)c1ccccc1.Cl (stereo not shown) [Noremopamil, 1,7-Bis-(phenyl)-3-aza-7-cyano-8-methyl-nonan-hydrochlorid] | 4,6 | 1,60x | 4,1 | 4,3 | 6.9 | 2,9 | 4.6 | 0,19 | 6.9 | 
COc1ccc(CCN(C)CCCC(C#N)(c2cc(OC)c(OC)c(OC)c2)C(C)C)cc1OC (single isomer, unassigned; (+)) [(+)-Gallopamil, (+)-1-(3,4-Dimethoxyphenyl)-3-methylaza-7-cyan-7-(3,4,5-trimethoxyphenyl)-8-methylnonan-hydrochlorid] | 4,6 | 1,7x | 4,4 | 3,4 |  | 12,6 | 21.6 | 0,53 |  | 8,6%
CC(C)[C@@](C#N)(CCCN(C)CCc1ccccc1)c1ccccc1 [S-Emopamil, (-)-(S)-1,7-Bis-(phenyl)-3-methylaza-7-cyano-8-methyl-nonan-hydrochlorid] | 2,15 | 1,8x | 4,5 | 2,7 |  | 7,7 | 13.5 | 0,19 |  | 6,7%
COc1ccc(CCN(C)CCC[C@](C#N)(c2ccc(OC)c(OC)c2)C(C)C)cc1OC [R-Verapamil, reference compound] | 4,6 | 1,6x | 4,15 |  |  |  | 10.2 | 0,56 |  | 14,2%
